Measured values from the OPERA property sets (Mansouri et al. 2018).

SMILES	logP
O=[N+]([O-])c1nccn1CC(O)CN1CCCCC1 (stereo unspecified)	1
O=C1CCCCCCCN1	0.67
O=C(O)c1cc2ccccc2[nH]1	2.31
CCC1(C(C)CC(C)O)C(=O)NC(=O)NC1=O (stereo unspecified)	0.35
Cn1cccn1	0.23
Nc1ccc(C(=O)Oc2ccccc2F)c(O)c1	3.29
CC12CCC(=O)C=C1CCC1C2C(O)CC2(C)C1CCC2(O)C(=O)COC(=O)CCC(N)=O (stereo unspecified)	1.43
CN(C)C1=CC(=O)C(N(C)C)=CC1=O	1.03
C=CCC1(CC)C(=O)NC(=O)NC1=O	0.95
CCNC(=S)Nc1ccccc1	1.42
O=[N+]([O-])c1ccc(-c2ccccc2)cc1	3.82
BrCCCc1ccccc1	3.72
CCCOC(=O)c1ccc(S(N)(=O)=O)cc1	1.75
O=Cc1ccccn1	0.44
Nc1ccncc1	0.32
NC(=O)CCN1CCc2cccc(Cl)c2CC1	1.64
Nc1nc(N)nc(-c2cccc(F)c2)n1	1.73
O=C(O)c1cc2ccccc2o1	2.41
CC=CC=CC (mixture of isomers)	2.8
CC(=O)NC(=O)C1CCC1	-0.4
Cc1cccc(C)c1	3.2

SMILES	logP
NC(=O)c1ccc2[nH]ccc2c1	0.87
O=NN1CCSCC1	0.4
CCCCN(N=O)C(N)=O	1.04
CCCCCCCCCCCCCC	7.2
C=C(CC(Cl)(Cl)Cl)c1ccccc1	4.56
CNC(=O)c1ccccc1	0.86
O=C1c2ccccc2C(=O)c2ccccc21	3.39
O=C(O)CCCN1C(=O)C=CC1=O	0.4
CC(C)(C)c1ccc(N)cc1	2.7
COC(=O)C(CC(C)C)NC(C)=O (stereo unspecified)	0.84
OCc1ccccc1O	0.73
ClCc1cccc(CCl)c1	2.72
CC1CC2OC(=O)C3(C)C2C(OC3(C)O)C2(C)C(=O)C=CC12 (stereo unspecified)	0.3
CCCNC	0.84
CNC1=CC(=O)C(NC)=CC1=O	0.34
CCCCCCCN	2.57
CN1CCC=C1c1cccnc1	1.13
CN(C)C(=O)Nc1ccc(C2CCCCC2)cc1	3.83
CN(C(N)=S)c1ccccc1	0.85
Cn1c(N)nc2cc(Cl)ccc21	2.09
Cc1ccccc1C(=O)O	2.46

SMILES	logP
O=C(Nc1ccccc1)C1CNCCN1 (stereo unspecified)	0.48
O=C(O)c1cc([N+](=O)[O-])ccc1O	2.34
CC1=C(O)C(=O)c2ccccc2C1=O	1.2
NC(Cc1c[nH]c2cc(F)ccc12)C(=O)O (stereo unspecified)	-0.78
Cc1nnc(NS(=O)(=O)c2ccc(N)cc2)s1	0.54
CCc1ccccc1CC	3.72
COC(=O)CCCCC(=O)OC	1.03
Cc1ccc(Cl)cc1Cl	4.24
COC1C(O)CC(OC2C(O)CC(OC3C(O)CC(OC4CCC5(C)C(CCC6C5CC(OC(C)=O)C5(C)C(C7=CC(=O)OC7)CCC65O)C4)OC3C)OC2C)OC1C (stereo unspecified)	2.87
Cc1[nH]cnc1CSCCNC1=NS(=O)(=O)CCN1	-0.74
CCCCC(=O)O[C@]1(C(=O)CO)[C@@H](C)C[C@H]2[C@@H]3CCC4=CC(=O)C=C[C@]4(C)[C@@]3(F)[C@@H](O)C[C@@]21C	3.6
COc1cc([C@@H]2c3cc4c(cc3C(O[C@@H]3O[C@@H]5COC(c6cccs6)O[C@H]5[C@H](O)[C@H]3O)C3COC(=O)[C@@H]32)OCO4)cc(OC)c1O (stereo partly specified)	1.24
CC(=O)Nc1cccs1	1.1
c1ccc(-c2ncc[nH]2)cc1	1.88
Nc1ccc2cc3ccc(N)cc3nc2c1	1.83
c1ccc(P(c2ccccc2)c2ccccc2)cc1	5.69
O=C(NN=Cc1ccoc1)Nc1ccccc1	2.52
CCC(C)c1cc([N+](=O)[O-])cc(C(C)C)c1O (stereo unspecified)	4.19
CNC(=O)Oc1ccccc1C1OCCO1	0.67
Cc1cc2c(cc1C)C(=O)C=CC2=O	2.49
CCCCCOc1cccc(O)c1	3.63

SMILES	logP
COc1nccnc1NS(=O)(=O)c1ccc(N)cc1	0.7
O=[N+]([O-])c1cc(Br)c(O)c(Br)c1	3.57
CCn1cnc([N+](=O)[O-])n1	-0.19
C1COCCOCCOCCOCCO1	-0.48
CN(C)C(N(C)C)=S(I)c1ccccc1Cl (stereo unspecified)	-0.19
Cc1cc(N)ncn1	0.19
C1=CCCC=CCC1	3.16
NNC(=O)c1ccccc1N	-0.18
c1ccc(C23CCN(CC2)CC3)cc1	2.54
Cc1n[nH]c(C(=O)NCCc2ccccc2)c1[N+](=O)[O-]	1.82
CCCCn1cnc2c(N)ncnc21	1.25
CCOC(=O)C(=Cc1ccc([N+](=O)[O-])cc1)C(=O)OCC	3.03
CC(=O)OC[C@H]1O[C@H](OC(C)=O)[C@H](OC(C)=O)[C@@H](OC(C)=O)[C@@H]1OC(C)=O	0.63
CC(=O)Oc1ccc(C)cc1	2.11
CCCS	1.81
OCc1ccc2c(c1)OCO2	1.05
CCOP(=S)(OCC)SCSCC	3.56
CCCCNC(=O)c1cccnc1	0.9
